Data from US7615555B2, “Piperidine derivatives as modulators of chemokine receptor CCR5” (AstraZeneca AB, priority 2004, dated 2009).

Columns and labels:
[1] = target: recombinant human CCR5 receptor (Homo sapiens, UniProt P51681); experiment: in vitro radioligand binding assay: inhibition of MIP-1α binding; details: displacement of 0.1 nM iodinated MIP-1α; membranes from Chinese hamster ovary cells expressing recombinant human CCR5; scintillation proximity; average if tested more than once
Experimental: The ability of compounds to inhibit the binding of MIP-1α was assessed by an in vitro radioligand binding assay. Membranes were prepared from Chinese hamster ovary cells which expressed the recombinant human CCR5 receptor. These membranes were incubated with 0.1 nM iodinated MIP-1α, scintillation proximity beads and various concentrations of the compounds of the invention in 96-well plates. The amount of iodinated MIP-1α bound to the receptor was determined by scintillation counting. Competition curves were obtained for compounds and the concentration of compound which displaced 50% of bound iodinated MIP-1α was calculated (IC50).
In Table XII the results are presented as Pic50 values. A Pic50 value is the negative log (to base 10) of the IC50 result, so an IC50 of 1 μM (that is 1×10^−6M) gives a Pic50 of 6. If a compound was tested more than once then the data below is an average of the probative tests results.

Chain of recombinant human CCR5 receptor (P51681 whole entry): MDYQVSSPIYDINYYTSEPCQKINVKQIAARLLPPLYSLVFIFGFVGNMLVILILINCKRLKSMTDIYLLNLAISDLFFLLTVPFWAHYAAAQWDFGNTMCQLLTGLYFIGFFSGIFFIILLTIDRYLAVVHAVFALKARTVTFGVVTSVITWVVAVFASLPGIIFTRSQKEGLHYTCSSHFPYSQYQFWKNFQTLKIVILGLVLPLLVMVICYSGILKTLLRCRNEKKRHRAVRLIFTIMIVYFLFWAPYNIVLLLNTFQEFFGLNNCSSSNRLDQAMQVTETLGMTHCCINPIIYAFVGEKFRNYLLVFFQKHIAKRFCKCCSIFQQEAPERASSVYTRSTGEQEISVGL

| IC50 [1] [nM] | melting point [°C] | SMILES |
| --- | --- | --- |
| 31.6 | – | Cc1nnc(C(C)C)n1C1CCN(CC[C@@H](c2ccccc2)N2CCN(S(=O)(=O)c3ccccc3)CC2)CC1 [Table II Compound 1, 1-{(1S)-3-[4-(3-isopropyl-5-methyl-4H-1,2,4-triazol-4-yl)piperidin-1-yl]-1-phenylpropyl}-4-(phenylsulfonyl)piperazine] |
| 251 | – | CCS(=O)(=O)N1CCN(C(CCN2CCC(n3cnc4cc(S(C)(=O)=O)ccc43)CC2)c2ccccc2)CC1 (stereo not shown) [Table I Compound 1, 1-(1-{3-[4-(ethylsulfonyl)piperazin-1-yl]-3-phenylpropyl}piperidin-4-yl)-5-(methylsulfonyl)-1H-benzimidazole] |
| 0.501 | 161 | CS(=O)(=O)c1ccc2c(c1)ncn2C1CCN(CC[C@@H](c2cc(F)cc(F)c2)C2CCN(S(C)(=O)=O)CC2)CC1 [Table II Compound 5, 1-(1-{(3R)-3-(3,5-difluorophenyl)-3-[1-(methylsulfonyl)piperidin-4-yl]propyl}piperidin-4-yl)-5-(methylsulfonyl)-1H-benzimidazole] |
